Holding throughout (type): functional, cell-based
One assay relates to SW480. Kind of assay: Cytotoxicity against human SW480 cells assessed as decrease in cell viability after 4 days by MTT assay. The conditions noted are these: SW480, 96 h.
The test system of the next assay is MCF7. Kind of assay: Cytotoxicity against human MCF7 cells assessed as decrease in cell viability after 4 days by MTT assay. As to conditions: MCF7, 96 h. (Tetrazolium dyes change colour on reduction, which living cells bring about.)
Another assay has as its system HL-60. Put plainly: Cytotoxicity against human HL60 cells assessed as decrease in cell viability after 4 days by MTT assay. The conditions noted are these: HL-60, 96 h.
In another assay the test system is A549. Put plainly: Cytotoxicity against human A549 cells assessed as decrease in cell viability after 4 days by MTT assay. As to conditions: A549, 96 h.
The next assay relates to SMMC-7721. Kind of assay: Cytotoxicity against human SMMC7721 cells assessed as decrease in cell viability after 4 days by MTT assay. As to conditions: SMMC-7721, 96 h.

Some results are limits rather than exact numbers.

Consider `C=C1C[C@]23C[C@@]1(O)CC[C@H]2c1cc(Br)c(O)c(C)c1[C@@H]3Cn1cc(-c2ccc(C)cc2)nn1`, for which the IC50 with SW480, in the assay with MCF7, with HL-60, with A549 and with SMMC-7721 was over 20 µM throughout.

With `Cc1c(O)ccc2c1[C@H](Cn1cc(-c3ccccn3)nn1)[C@@]13CC(=O)[C@@](C)(CC[C@@H]21)C3`, the IC50 in the assay with SW480, in the assay on MCF7, in the assay with HL-60, in the assay on A549 and in the assay with SMMC-7721 was over 20 µM throughout.

`COc1ccc(-c2cn(C[C@H]3c4c(ccc(OS(=O)(=O)c5ccc(C)cc5)c4C)[C@@H]4CC[C@@]5(C)C[C@]43CC5=O)nn2)cc1`: the concentration for half-maximal inhibition (IC50) with SW480, in the assay with MCF7, in the assay with HL-60, in the assay on A549 and in the assay on SMMC-7721 was over 20 µM in each case.

Consider `Cc1ccc(-c2cn(C[C@H]3c4c(ccc(OS(=O)(=O)c5ccc(C)cc5)c4C)[C@@H]4CC[C@@]5(C)C[C@]43CC5=O)nn2)cc1`, for which the IC50 in the assay on SW480, in the assay on MCF7, in the assay with HL-60, with A549 and in the assay with SMMC-7721 was over 20 µM in each case.

On to `C=C1C[C@]23C[C@@]1(O)CC[C@H]2c1cc(Br)c(O)c(C)c1[C@@H]3Cn1cc(-c2ccc(C(F)(F)F)cc2)nn1`, for which the IC50 (commonly the point on the concentration scale where inhibition reaches its midpoint) in the assay on SW480 was 15.2 µM; with MCF7 it was 8.1 µM; with HL-60, 7.38 µM; in the assay on A549, 9.28 µM; in the assay with SMMC-7721, 12.8 µM.

`C=C1C[C@]23C[C@@]1(O)CC[C@H]2c1ccc(O)c(C)c1[C@@H]3Cn1cc(-c2ccc(C(F)(F)F)cc2)nn1`: the IC50 is over 20 µM in the assay on SW480; 12.4 µM in the assay on MCF7; 8.95 µM in the assay with HL-60; 10.4 µM in the assay on A549; over 20 µM in the assay with SMMC-7721.

Turning to `C=C1C[C@]23C[C@@]1(O)CC[C@@H]2c1cccc(C)c1[C@@H]3Cn1cc(-c2ccccn2)nn1`, the half-maximal inhibitory concentration (IC50) with SW480, in the assay on MCF7, in the assay with HL-60, in the assay on A549 and with SMMC-7721 was over 20 µM in each case.

With `C=C1C[C@]23C[C@@]1(O)CC[C@H]2c1ccc(O)c(C)c1[C@@H]3Cn1cc(-c2ccc(OC)cc2)nn1`, the IC50 with SW480, with MCF7, in the assay on HL-60, with A549 and with SMMC-7721 was over 20 µM each time.

Turning to `C=C1C[C@]23C[C@@]1(O)CC[C@H]2c1ccc(OS(=O)(=O)c2ccc(C)cc2)c(C)c1[C@@H]3Cn1cc(-c2ccccc2)nn1`, the IC50 in the assay with SW480, with MCF7, in the assay on HL-60, in the assay with A549 and in the assay with SMMC-7721 was over 20 µM each time.

Consider `C=C1C[C@]23C[C@@]1(O)CC[C@H]2c1ccc(OS(=O)(=O)c2ccc(C)cc2)c(C)c1[C@@H]3Cn1cc(-c2ccc(OC)cc2)nn1`, for which the IC50 in the assay with SW480, in the assay with MCF7, with HL-60, in the assay with A549 and in the assay on SMMC-7721 was over 20 µM each time.

As to `C=C1C[C@]23C[C@@]1(O)CC[C@@H]2c1cccc(C)c1[C@@H]3Cn1cc(-c2ccc(C(F)(F)F)cc2)nn1`, the IC50 in the assay on SW480, with MCF7, in the assay on HL-60, in the assay on A549 and in the assay on SMMC-7721 was over 20 µM in each case.

Regarding `C=C1C[C@]23C[C@@]1(O)CC[C@H]2c1cc(Br)c(O)c(C)c1[C@@H]3Cn1cc(-c2ccccc2)nn1`, the IC50 in the assay with SW480, in the assay on MCF7, with HL-60, in the assay on A549 and in the assay on SMMC-7721 was over 20 µM in each case.

In the case of `C=C1C[C@]23C[C@@]1(O)CC[C@H]2c1ccc(O)c(C)c1[C@@H]3Cn1cc(-c2ccc(Cl)cc2)nn1`, the IC50 in the assay with SW480, in the assay on MCF7, in the assay on HL-60, in the assay on A549 and in the assay on SMMC-7721 was over 20 µM each time.

As for `Cc1c(O)ccc2c1[C@H](Cn1cc(-c3ccccc3)nn1)[C@@]13CC(=O)[C@@](C)(CC[C@@H]21)C3`, the IC50 with SW480, in the assay on MCF7, with HL-60, in the assay on A549 and with SMMC-7721 was over 20 µM each time.

Regarding `Cc1ccc(S(=O)(=O)Oc2ccc3c(c2C)[C@H](Cn2cc(-c4ccc(C(F)(F)F)cc4)nn2)[C@@]24CC(=O)[C@@](C)(CC[C@@H]32)C4)cc1`, the IC50 in the assay on SW480, in the assay with MCF7, in the assay with HL-60, with A549 and in the assay with SMMC-7721 was over 20 µM each time.

As to `Cc1ccc(-c2cn(C[C@H]3c4c(ccc(O)c4C)[C@@H]4CC[C@@]5(C)C[C@]43CC5=O)nn2)cc1`, the IC50 with SW480, in the assay with MCF7, with HL-60, in the assay with A549 and in the assay on SMMC-7721 was over 20 µM throughout.

Consider `C=C1C[C@]23C[C@@]1(O)CC[C@H]2c1cc(Br)c(O)c(C)c1[C@@H]3Cn1cc(-c2ccc(OC)cc2)nn1`, for which the IC50 in the assay with SW480, in the assay with MCF7, in the assay on HL-60, with A549 and in the assay with SMMC-7721 was over 20 µM each time.

With `C=C1C[C@]23C[C@@]1(O)CC[C@H]2c1cc(Br)c(O)c(C)c1[C@@H]3Cn1cc(-c2ccccn2)nn1`, the IC50 in the assay with SW480, in the assay on MCF7, with HL-60, in the assay on A549 and in the assay on SMMC-7721 was over 20 µM each time.

Turning to `C=C1C[C@]23C[C@@]1(O)CC[C@H]2c1cc(Br)c(O)c(C)c1[C@@H]3Cn1cc(-c2ccc(F)cc2)nn1`, the IC50 was over 20 µM in the assay with SW480; 19.2 µM in the assay with MCF7; 6.6 µM in the assay on HL-60; 17.9 µM in the assay on A549; over 20 µM in the assay on SMMC-7721.

`COc1ccc(-c2cn(C[C@H]3c4c(ccc(O)c4C)[C@@H]4CC[C@@]5(C)C[C@]43CC5=O)nn2)cc1`: the IC50 in the assay with SW480, in the assay on MCF7, in the assay with HL-60, with A549 and in the assay on SMMC-7721 was over 20 µM throughout.

As for `C=C1C[C@]23C[C@@]1(O)CC[C@H]2c1ccc(OS(=O)(=O)c2ccc(C)cc2)c(C)c1[C@@H]3Cn1cc(-c2ccc(Cl)cc2)nn1`, the IC50 in the assay on SW480, in the assay with MCF7, with HL-60, in the assay with A549 and in the assay with SMMC-7721 was over 20 µM throughout.

Turning to `Cc1ccc(S(=O)(=O)Oc2ccc3c(c2C)[C@H](Cn2cc(-c4ccc(Cl)cc4)nn2)[C@@]24CC(=O)[C@@](C)(CC[C@@H]32)C4)cc1`, the IC50 in the assay on SW480, in the assay with MCF7, in the assay on HL-60, with A549 and in the assay with SMMC-7721 was over 20 µM each time.

Regarding `C=C1C[C@]23C[C@@]1(O)CC[C@H]2c1ccc(O)c(C)c1[C@@H]3Cn1cc(-c2ccccc2)nn1`, the IC50 in the assay on SW480, in the assay on MCF7, in the assay on HL-60, in the assay on A549 and in the assay with SMMC-7721 was over 20 µM in each case.

With `C=C1C[C@]23C[C@@]1(O)CC[C@H]2c1ccc(OS(=O)(=O)c2ccc(C)cc2)c(C)c1[C@@H]3Cn1cc(-c2ccc(F)cc2)nn1`, the IC50 with SW480, with MCF7, in the assay with HL-60, in the assay on A549 and in the assay with SMMC-7721 was over 20 µM throughout.

`C=C1C[C@]23C[C@@]1(O)CC[C@H]2c1ccc(O)c(C)c1[C@@H]3Cn1cc(-c2ccc(F)cc2)nn1`: the IC50 in the assay on SW480, with MCF7, in the assay on HL-60, in the assay with A549 and with SMMC-7721 was over 20 µM in each case.

For the compound `Cc1ccc(S(=O)(=O)Oc2ccc3c(c2C)[C@H](Cn2cc(-c4ccc(F)cc4)nn2)[C@@]24CC(=O)[C@@](C)(CC[C@@H]32)C4)cc1`, the concentration for half-maximal inhibition (IC50) in the assay on SW480, with MCF7, with HL-60, with A549 and with SMMC-7721 was over 20 µM in each case.

With `Cc1ccc(S(=O)(=O)Oc2ccc3c(c2C)[C@H](Cn2cc(-c4ccccc4)nn2)[C@@]24CC(=O)[C@@](C)(CC[C@@H]32)C4)cc1`, the IC50 in the assay with SW480, with MCF7, in the assay with HL-60, in the assay with A549 and with SMMC-7721 was over 20 µM each time.

`CC(=O)O[C@H]1C(=O)[C@@]2(C)[C@H]([C@H](OC(=O)c3ccccc3)[C@]3(O)C[C@H](OC(=O)[C@H](O)[C@@H](NC(=O)c4ccccc4)c4ccccc4)C(C)=C1C3(C)C)[C@]1(OC(C)=O)CO[C@@H]1C[C@@H]2O` [PACLITAXEL]: the IC50 with SW480, in the assay on MCF7, in the assay on HL-60, with A549 and in the assay with SMMC-7721 was under 0.008 µM in each case.

As for `C=C1C[C@]23C[C@@]1(O)CC[C@H]2c1ccc(O)c(C)c1[C@@H]3Cn1cc(-c2ccc(C)cc2)nn1`, the IC50 with SW480, in the assay on MCF7, in the assay with HL-60, in the assay with A549 and in the assay on SMMC-7721 was over 20 µM in each case.

As to `C=C1C[C@]23C[C@@]1(O)CC[C@H]2c1ccc(O)c(C)c1[C@@H]3Cn1cc(-c2ccccn2)nn1`, the IC50 in the assay with SW480, in the assay with MCF7, in the assay with HL-60, in the assay with A549 and with SMMC-7721 was over 20 µM in each case.

As to `Cc1c(O)ccc2c1[C@H](Cn1cc(-c3ccc(Cl)cc3)nn1)[C@@]13CC(=O)[C@@](C)(CC[C@@H]21)C3`, the concentration for half-maximal inhibition (IC50) in the assay on SW480, with MCF7, in the assay on HL-60, in the assay on A549 and in the assay on SMMC-7721 was over 20 µM in each case.

(Values after ChEMBL document CHEMBL4219271, “Synthesis and anti-proliferative activity of allogibberic acid derivatives containing 1,2,3-triazole pharmacophore” (Bioorg Med Chem Lett, 2018).)
